Experimental data taken from patent publication US20230063321A1, “Methods for Treating Inflammatory Bowel Diseases with alpha4beta7 Integrin Antagonists” (Protagonist Therapeutics, Inc., priority 2020, published 2023).
Like-named read-outs stand apart in the source and are kept apart here. Marks after values point to notes of the source that are not given here. Numbered stars: 1 amine (or outer) side, 2 acyl side, 3 side chain; on linkers, the order of the positions; unused ones are H or OH. Bridge positions count the residues as written; N and C are the ends. Square brackets hold non-standard residues; d marks the D form. Peptide text beside a SMILES is read from it. I, II: the chains in the order shown. ξ: configuration not given here. Phe(4-tBu) = CC(C)(C)c1ccc(C[C@H](N)C(=O)O)cc1; Diglycolyl = O=C(COCC(=O)[*:2])[*:1]; NMeR = CN[C@@H](CCCNC(=N)N)C(=O)O; β3hE = N[C@@H](CCC(=O)O)CC(=O)O; Thr(3ξ) = CC(O)[C@H](N)C(=O)O; X1 = O=C(c1ccccc1C[*:2])[*:1]; Pen = CC(C)(S)[C@H](N)C(=O)O

Assays:
[1] = 28-day toxicology studies (NOEL); type: in vivo, rats and cynomolgus monkeys; details: standard allometric scaling and 10-fold safety margin
Experimental: The starting dose in the first in human single and multiple dose study was based on consideration of the no observed effect level (NOEL) from 28-day toxicology studies in rats and cynomolgus monkeys, and the receptor occupancy noted in cynomolgus monkeys. The NOEL determined in rats and monkeys translated to a human equivalent dose of approximately 145 mg using standard allometric scaling and a 10-fold safety margin. A starting dose of 100 mg was selected with initial stepwise escalations of approximately 3-fold.

[2] = Drug exposure in plasma and Peyer's patches after oral dosing
Experimental: One hour following dosing, mice were euthanized and whole blood/plasma and Peyer's patches were collected. Peyer's patches were dispersed in 1 mL RPMI medium with 2% FBS without washing step. Whole blood and single cell suspension of Peyer's patches (100 uL out of 1 mL total) were submitted for flow cytometry to determine α4β7 receptor occupancy. % RO=(1−(% positive test sample/% positive median vehicle control))*100. Plasma and Peyer's patches dispersed in single cell suspension (500 uL of 1 mL total) were also analyzed for drug exposure.

α4β7 integrin [3] = biological target: T1, α4β7 integrin (Homo sapiens, UniProt P13612+P26010); assay: Inhibition of MAdCAM1-mediated CD4+ T cell proliferation (plate bound anti-CD3 + MAdCAM1); type: cell-based
T1 construct: endogenous in cells; host or cells: primary human CD4+ T cells enriched from PBMCs of healthy donors
Experimental: (§1) PBMCs were purified from healthy human donors and enrichment of CD4+ T cells was performed. […] Phenotype, distribution of T-helper (Th) subsets and % RO analyses were conducted by flow cytometry of freshly stained live samples.

[4] = Plasma and tissue exposure after single PO administration; type: in vivo, C57BL/6 female mice; details: single PO 30 mg/kg
Experimental: Twelve treatment-naïve C57BL/6 female mice were assigned to the study. […] At 1, 3, and 6 hours (h) post-dose, 4 mice/time point were subjected to terminal bleeds and euthanized; Peyer's patches (PPs), mesenteric lymph nodes (MLNs), small intestine, and colon were collected from each animal. The blood was processed to plasma; plasma and the tissue samples were submitted for pharmacokinetic (PK) analysis of Compound A levels using a qualified liquid chromatography tandem mass spectrometry (LC-MS/MS) method.
Processed plasma and tissue samples were analyzed on an AB/MDS Sciex API 4000 mass spectrometer. Positive ions were monitored in the multiple reaction-monitoring (MRM) mode. Quantitation was by peak area ratio.
PK data analysis was carried out using non-compartmental analysis (NCA) in Phoenix WinNonlin 8.1 (Certara USA Inc.). All concentration values below the lower limit of quantitation were treated as zero for the pharmacokinetic analysis. The maximum concentration (Cmax) and the apparent time to Cmax (tmax) were obtained by observation. The area under the concentration versus time curve (AUC) was obtained by the linear trapezoidal method. All concentration data and PK parameters were reported at up to three significant figures if the value was greater than one, and at up to three decimal places if the value was less than one. Time parameters were reported at up to two decimal places. The concentration data were plotted using Excel (Microsoft).

[5] = male, human, in vivo; for Ctrough: po
Experimental: Dose escalation proceeded from 100 mg, 300 mg, 1000 mg, 1400 mg. Subjects in the 300 mg dose cohort received treatment in the fasted state on one occasion and following a high fat meal on a second occasion in a crossover fashion. The high fat meal consisted of two eggs fried in butter, two strips of bacon, two slices of toast with butter, four ounces of hash brown potatoes and 240 ml of whole milk. During Part 1, subjects refrained from food and drink except water for 10 hours before and for four hours after dosing with the exception of subjects in the 300 mg dose cohort during the fed treatment.
Part 2 was a randomized, placebo-controlled, double-blind multiple ascending dose study in 50 male subjects divided equally into 5 cohorts. […] Doses evaluated in Part 2 included 100 mg, 300 mg and 1000 mg. During Part 2, two cohorts of subjects (100 mg and 300 mg) received food approximately 30 minutes prior to each dose and another two cohorts of subjects (300 mg and 100 mg) refrained from food for 10 hours before and for 1 hour after dosing.
Study 1: The single and multiple ascending dose phase of the study consisted of sequential dose escalations in 10 subject per dose cohort. […] Dose solutions were formulated in 50 mM phosphate buffer pH 7.4 and were prepared weekly by a qualified pharmacist.
Blood samples for pharmacokinetics were collected predose and for 48 hours postdose following single doses. In the multiple ascending dose phase, blood samples were obtained on Days 1-3 and 14-16; on Days 8 samples were obtained predose, 4, and 12 hours. On Day 10 of the MAD, subjects were required to collect all urine for the 0-6, 6-12, 12-18, and 18-24 hour intervals postdose and on Day 11 subjects were required to collect fecal samples.
The drug and internal standard were extracted from the matrix by a protein precipitation procedure. The limit of quantitation was 0.2 ng/mL, 20 ng/mL, and 100 ng/mL in plasma, urine, and feces, respectively. […] Coefficient of determinations for the calibration curves were at least 0.99 for all matrices. The interassay accuracy (% bias) ranged from −2.2% to 1.0% for plasma, −3.8% to 9.0% for urine and −5.0 to 5.2% for feces. Interassay precision (% CV) ranged from 3.7% to 7.7% for plasma, 2.8% to 7.0% for urine, and 1.2% to 5.2% for feces.
Pharmacokinetic parameters were estimated by noncompartmental methods using Phoenix WinNonlin (Certara, Princeton N.J.). Peak plasma concentration (Cmax) and time to peak plasma concentration (Tmax) were observed values. The elimination rate was estimated from the slope of the least-squares regression on the terminal log-linear phase. Area under the plasma concentration-time curve from time zero to the last quantifiable concentration (AUCt) was estimated by a linear trapezoidal method and was extrapolated to infinity (AUC∞) by dividing the last quantifiable concentration b the elimination rate.

primary CD4+ T-cells = assay: Flow cytometry phenotype of proliferated CD4+ T-cells (Th subsets, surface β7); type: cell-based, human
Experimental: as §1

[6] = Safety and tolerability in healthy volunteers; details: for tolerability: single and multiple oral doses
[7] = Oral bioavailability in mice; details: mouse, in vivo
α4β7 / MAdCAM1 = biological target: T2, α4β7 / MAdCAM1 (Homo sapiens, UniProt P13612+P26010); assay: Adhesion of CD4+ T memory cells to MAdCAM1; type: cell-based
T2 construct: endogenous in cells
Experimental: After incubation, cells were washed extensively to remove excess peptide. For each reaction, an aliquot of cells was stained for α4β7 expression, while a separate aliquot was tested for adhesion to MAdCAM1.

α4β7 integrin [8] = biological target: T1, α4β7 integrin; assay: MAdCAM1-mediated cytokine production by CD4+ T-cells (MSD/luminex multiplex); type: cell-based; details: IFNγ, IL-5, IL-6, IL-10, IL-13, GM-CSF, TNFα; three donors
Experimental: PBMCs were purified from three healthy human donors (Donors 7, 10, and 11), and enrichment of CD4+ T cells was performed.

[9] = Anti-CD3 + MAdCAM1 + 1 uM Compound A

T1 sequence (P13612 34-1032): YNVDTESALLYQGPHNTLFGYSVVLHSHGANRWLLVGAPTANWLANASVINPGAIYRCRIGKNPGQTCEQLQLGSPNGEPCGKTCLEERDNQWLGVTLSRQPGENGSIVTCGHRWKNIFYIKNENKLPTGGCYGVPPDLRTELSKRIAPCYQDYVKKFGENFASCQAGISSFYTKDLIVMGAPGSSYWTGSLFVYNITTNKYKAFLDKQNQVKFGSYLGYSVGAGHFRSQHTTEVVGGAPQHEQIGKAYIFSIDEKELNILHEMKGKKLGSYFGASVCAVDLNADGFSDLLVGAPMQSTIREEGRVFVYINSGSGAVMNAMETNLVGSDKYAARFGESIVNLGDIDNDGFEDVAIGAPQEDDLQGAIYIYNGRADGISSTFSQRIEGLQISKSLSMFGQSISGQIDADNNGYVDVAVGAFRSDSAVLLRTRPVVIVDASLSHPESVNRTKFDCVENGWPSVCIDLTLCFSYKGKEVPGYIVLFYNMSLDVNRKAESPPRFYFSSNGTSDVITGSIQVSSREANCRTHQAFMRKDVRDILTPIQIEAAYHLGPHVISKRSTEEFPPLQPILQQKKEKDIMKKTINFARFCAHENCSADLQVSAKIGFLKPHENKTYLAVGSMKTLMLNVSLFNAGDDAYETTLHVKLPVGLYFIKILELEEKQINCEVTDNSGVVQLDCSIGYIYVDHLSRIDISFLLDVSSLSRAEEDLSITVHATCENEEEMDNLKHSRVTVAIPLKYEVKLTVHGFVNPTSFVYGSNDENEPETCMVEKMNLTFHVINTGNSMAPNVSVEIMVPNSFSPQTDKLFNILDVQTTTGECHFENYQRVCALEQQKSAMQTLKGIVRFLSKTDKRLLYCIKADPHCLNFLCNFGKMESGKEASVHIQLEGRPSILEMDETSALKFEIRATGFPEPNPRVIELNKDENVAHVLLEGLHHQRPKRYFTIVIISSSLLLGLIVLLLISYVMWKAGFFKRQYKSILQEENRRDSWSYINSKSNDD
T1 sequence (P26010 20-798): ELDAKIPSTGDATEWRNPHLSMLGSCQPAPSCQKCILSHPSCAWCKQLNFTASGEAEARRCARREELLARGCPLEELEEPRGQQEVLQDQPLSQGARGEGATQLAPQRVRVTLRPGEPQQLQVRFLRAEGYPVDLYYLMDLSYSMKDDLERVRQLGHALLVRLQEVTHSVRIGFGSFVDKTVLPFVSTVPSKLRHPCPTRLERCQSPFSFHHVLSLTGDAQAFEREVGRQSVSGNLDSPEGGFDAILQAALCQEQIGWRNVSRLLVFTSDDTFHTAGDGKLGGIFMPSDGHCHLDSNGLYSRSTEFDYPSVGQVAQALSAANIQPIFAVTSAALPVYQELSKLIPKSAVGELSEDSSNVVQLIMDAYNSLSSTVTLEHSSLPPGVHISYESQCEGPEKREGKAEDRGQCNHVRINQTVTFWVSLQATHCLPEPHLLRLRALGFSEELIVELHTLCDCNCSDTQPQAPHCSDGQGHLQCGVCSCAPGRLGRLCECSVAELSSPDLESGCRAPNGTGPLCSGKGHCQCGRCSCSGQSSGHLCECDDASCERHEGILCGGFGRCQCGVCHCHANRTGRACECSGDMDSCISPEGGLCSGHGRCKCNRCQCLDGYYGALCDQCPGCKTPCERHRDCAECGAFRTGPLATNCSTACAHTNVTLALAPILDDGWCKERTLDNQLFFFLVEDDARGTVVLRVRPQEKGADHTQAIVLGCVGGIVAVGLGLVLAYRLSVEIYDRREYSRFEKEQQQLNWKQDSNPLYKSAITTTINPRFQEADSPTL
T2 sequence (P13612 34-1032): as the sequence (P13612 34-1032) above
T2 sequence (P26010 20-798): as the sequence (P26010 20-798) above

CC(C)C[C@@H]1NC(=O)[C@H](C(C)O)NC(=O)[C@H](CC(=O)O)NC(=O)[C@H](CO)NC(=O)[C@H](CCCNC(=N)N)N(C)C(=O)c2ccccc2CSC(C)(C)[C@@H](C(=O)N[C@@H](Cc2ccc(C(C)(C)C)cc2)C(=O)N[C@@H](CCC(=O)O)CC(=O)N[C@H](CCCCNC(=O)COCC(=O)NCCCC[C@@H](NC(=O)C[C@H](CCC(=O)O)NC(=O)[C@H](Cc2ccc(C(C)(C)C)cc2)NC(=O)[C@H]2NC(=O)[C@H](CC(C)C)NC(=O)[C@H](C(C)O)NC(=O)[C@H](CC(=O)O)NC(=O)[C@H](CO)NC(=O)[C@H](CCCNC(=N)N)N(C)C(=O)c3ccccc3CSC2(C)C)C(=O)O)C(=O)O)NC1=O (stereo partly drawn) [Compound A, ((2-Benzyl)-(N-Me-R)-Ser-Asp-Thr-Leu-Pen-(Phe(4-tBlu))-(β-homo-Glu)-(D-Lys)-OH)2 (SEQ ID NO: 5) and linker-DIG diglycolic acid] (I: [NMeR]SD[Thr(3ξ)]L[Pen][Phe(4-tBu)][β3hE][dK]-OH / II: [NMeR]SD[Thr(3ξ)]L[Pen][Phe(4-tBu)][β3hE][dK]-OH; linker I:9-II:9 via Diglycolyl; linker I:N-I:6, II:N-II:6 via X1)
human equivalent dose of the NOEL [1]: approximately 145 mg
concentration in plasma and Peyer's Patches vs dose ([2]; 3 and 30 mg/kg): significant dose-dependent increase
concentration in Peyer's Patches compared to plasma ([2]; both dose levels (3 and 30 mg/kg)): significantly higher
Complete Mayo Score, Adapted Mayo Score, and/or Partial Mayo Score vs placebo (450 mg BID or 150 mg BID): statistically significant improvement
safety of treatment (in vivo): safe
IC50 (α4β7 integrin [3]): 4.4 nM
IC50 (α4β7 integrin [3]; Average, read-out: IC50): 3.5 nM
inhibition of MAdCAM1-mediated proliferation of CD4+ T-cells (α4β7 integrin [3]; Compound A 1 uM, inactive analog 1 uM, vedolizumab 500 ng/mL, three days): completely abolished
IC50 (α4β7 integrin [3]; Donor 7, read-out: IC50): 1.6 nM
IC50 (α4β7 integrin [3]; Donor 8, read-out: IC50): 3.7 nM
IC50 (α4β7 integrin [3]; Donor 9, read-out: IC50): 5.2 nM
IC50 (α4β7 integrin [3]; Donor 11, read-out: IC50): 8 nM
Cmax ([4]; female, C57BL/6, mouse, mesenteric lymph nodes, read-out: mean Cmax, MLNs): 56.8 ng/g
AUC ([4]; female, C57BL/6, mouse, plasma): 95.4 ng·h/mL
Cmax ([4]; female, C57BL/6, mouse, plasma, read-out: mean Cmax, plasma): 19 ng/mL
Cmax ([4]; female, C57BL/6, mouse, small intestine, read-out: mean Cmax, small intestine): 13300 ng/g
mean AUC, MLNs [4]: 226 ng·h/g
mean AUC, PPs [4]: 37900 ng·h/g
mean AUC, colon [4]: 15700 ng·h/g
mean AUC, small intestine [4]: 48600 ng·h/g
mean Cmax in PPs and colon relative to small intestine [4]: approximately two-fold lower
time of peak exposure, MLNs [4]: 1 h
time of peak exposure, PPs [4]: 1 h
time of peak exposure, colon [4]: 6 h
time of peak exposure, plasma [4]: 3 h
time of peak exposure, small intestine [4]: 1 h
AUCt (ng · h/mL) ([5]; 100 mg): 12.9 ± 7.27^ ng · h/mL
AUCinf ([5]; 300 mg): 46.3 ± 19.2 ng·h/mL
AUCinf (ng · h/mL) ([5]; 300 mg): 43.9 ± 13.0^d ng · h/mL
Cmax (ng/mL) ([5]; 300 mg): 4.72 ± 1.85^ ng/mL
AUCt ([5]; 450 mg): 132 ± 106 ng·h/mL
AUCtau ([5]; 450 mg): 72.1 ± 54.7 ng·h/mL
Cmax ([5]; 450 mg): 5.98 ± 1.61 ng/mL
AUCinf ([5]; 900 mg): 160 ± 96.5 ng·h/mL
AUCt ([5]; 900 mg): 140 ± 74.4 ng·h/mL
AUCtau ([5]; 900 mg): 140 ± 74.4 ng·h/mL
Cmax ([5]; 900 mg): 22.8 ± 16.9 ng/mL
Ctrough ([5]; 450 mg): 3.25 ± 3.5 ng/mL
Ctrough ([5]; 900 mg): 1.78 ± 2.3 ng/mL
Th1-IFNγ, CD4+ T-cells (primary CD4+ T-cells; [9]): 15%
Th2-IL-4, CD4+ T-cells (primary CD4+ T-cells; [9]): 0.7%
Th17-IL-17A, CD4+ T-cells (primary CD4+ T-cells; [9]): 0.6%
surface expression of β7 in undivided CD4+ T-cells (primary CD4+ T-cells; tested in 5 donors): lowered
maximally tolerated dose, multiple dose (highest dose tested) ([6]; healthy volunteers): 1000 mg
maximally tolerated dose, single dose (highest dose tested) ([6]; healthy volunteers): 1400 mg
subjects reporting AEs ([6]; multiple doses): Thirty
total AEs ([6]; multiple doses): 68 AEs
QTc prolongation ([6]; single and multiple doses): no evidence of QTc prolongation was observed
tolerability [6]: generally well tolerated
tolerability ([6]; listed as COMPOUND A): safe and well tolerated
TEAEs in subjects who received drug ([6]; single ascending dose phase): 21 events
subjects with TEAEs who received drug ([6]; single ascending dose phase): 12 subjects
dose-limiting toxicities ([6]; single doses up to 1400 mg, multiple up to 1000 mg): no dose-limiting toxicities observed
bioavailability [7]: < 1%
Maximal adhesion reduction (%) (α4β7 / MAdCAM1; Donor 1, normalized to no-peptide control): 38%
Maximal adhesion reduction (%) (α4β7 / MAdCAM1; Donor 2, normalized to no-peptide control): 36%
Maximal adhesion reduction (%) (α4β7 / MAdCAM1; Mean of two donors): 37%
R-squared, α4β7 expression reduction vs adhesion reduction (α4β7 / MAdCAM1; first donor): 0.968
R squared, α4β7 expression reduction vs adhesion reduction (α4β7 / MAdCAM1; second donor): 0.940
inhibition of MAdCAM1-mediated cytokine production (α4β7 integrin [8]): Concentration-dependent and full inhibition
